# From ChEMBL document CHEMBL2169818, “Syntheses and biological activities of sulfoximine-based acyclic triaryl olefins” (Bioorg Med Chem Lett, 2012)
# What was measured:
# [1] = target: Estrogen receptor beta (Homo sapiens) (UniProt Q92731); assay: Displacement of [3H]-estradiol from human recombinant ERbeta expressed in Sf21 cells at 10 uM after 2 hrs
# [2] = target: T1, Estrogen receptor (Homo sapiens) (UniProt P03372); assay: Displacement of [3H]-estradiol from human recombinant ERalpha expressed in Sf21 cells at 10 uM after 2 hrs
# T1 sequence (whole entry): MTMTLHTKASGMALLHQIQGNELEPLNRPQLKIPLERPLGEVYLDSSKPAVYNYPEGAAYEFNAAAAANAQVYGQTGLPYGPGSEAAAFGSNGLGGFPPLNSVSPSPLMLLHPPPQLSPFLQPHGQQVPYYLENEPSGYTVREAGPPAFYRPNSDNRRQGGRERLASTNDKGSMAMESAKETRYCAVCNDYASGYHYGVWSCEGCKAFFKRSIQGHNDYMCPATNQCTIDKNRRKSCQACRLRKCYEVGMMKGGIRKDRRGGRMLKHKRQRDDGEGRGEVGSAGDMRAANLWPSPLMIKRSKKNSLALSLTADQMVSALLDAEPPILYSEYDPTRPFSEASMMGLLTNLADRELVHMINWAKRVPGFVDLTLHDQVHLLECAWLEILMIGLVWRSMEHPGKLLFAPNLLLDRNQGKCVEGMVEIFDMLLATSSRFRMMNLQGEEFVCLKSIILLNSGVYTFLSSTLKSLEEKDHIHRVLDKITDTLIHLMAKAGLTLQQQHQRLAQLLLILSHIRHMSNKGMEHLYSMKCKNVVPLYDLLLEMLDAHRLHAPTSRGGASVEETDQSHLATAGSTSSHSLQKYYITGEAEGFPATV
# [3] = target: T2, Prostaglandin G/H synthase 2 (Homo sapiens, UniProt P35354); assay: Inhibition of COX2
# T2 sequence (P35354 whole entry): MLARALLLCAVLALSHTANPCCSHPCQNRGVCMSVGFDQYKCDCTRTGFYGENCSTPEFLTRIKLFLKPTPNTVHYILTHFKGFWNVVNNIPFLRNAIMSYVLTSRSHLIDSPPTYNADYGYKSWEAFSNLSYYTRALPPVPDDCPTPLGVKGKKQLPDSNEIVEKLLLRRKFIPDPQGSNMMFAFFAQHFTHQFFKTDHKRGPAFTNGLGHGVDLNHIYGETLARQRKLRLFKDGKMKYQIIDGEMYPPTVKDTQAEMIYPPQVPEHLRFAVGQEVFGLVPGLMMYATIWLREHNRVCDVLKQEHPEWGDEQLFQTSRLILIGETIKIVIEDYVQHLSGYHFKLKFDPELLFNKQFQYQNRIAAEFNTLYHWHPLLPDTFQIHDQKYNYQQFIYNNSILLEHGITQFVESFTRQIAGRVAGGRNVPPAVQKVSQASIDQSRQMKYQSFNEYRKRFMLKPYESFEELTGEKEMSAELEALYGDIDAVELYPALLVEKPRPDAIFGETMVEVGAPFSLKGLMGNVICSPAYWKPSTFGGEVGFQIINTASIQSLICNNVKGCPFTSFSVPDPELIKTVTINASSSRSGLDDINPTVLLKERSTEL
# [4] = target: T3, Prostaglandin G/H synthase 1 (Homo sapiens, UniProt P23219); assay: Inhibition of COX1
# T3 sequence (P23219 whole entry): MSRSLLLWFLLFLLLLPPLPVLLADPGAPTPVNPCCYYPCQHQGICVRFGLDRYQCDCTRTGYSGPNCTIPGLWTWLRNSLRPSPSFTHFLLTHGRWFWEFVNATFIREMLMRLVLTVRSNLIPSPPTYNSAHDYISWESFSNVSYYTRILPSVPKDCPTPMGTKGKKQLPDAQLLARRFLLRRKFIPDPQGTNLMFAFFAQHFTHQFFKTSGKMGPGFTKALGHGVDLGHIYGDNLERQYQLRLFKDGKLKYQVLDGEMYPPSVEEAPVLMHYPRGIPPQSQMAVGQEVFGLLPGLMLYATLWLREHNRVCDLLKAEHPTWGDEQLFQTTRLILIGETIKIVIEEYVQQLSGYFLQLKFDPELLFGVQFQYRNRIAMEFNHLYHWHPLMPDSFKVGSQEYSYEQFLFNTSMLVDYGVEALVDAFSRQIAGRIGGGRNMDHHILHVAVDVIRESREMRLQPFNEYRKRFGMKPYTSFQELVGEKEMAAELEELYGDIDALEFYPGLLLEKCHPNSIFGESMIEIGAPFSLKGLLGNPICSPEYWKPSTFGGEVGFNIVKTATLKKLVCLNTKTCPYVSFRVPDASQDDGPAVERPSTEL
# [5] = target: T4, Prostaglandin G/H synthase 2 (Homo sapiens) (UniProt P35354); assay: Inhibition of human recombinant COX2 expressed in Sf21 cells using arachidonic acid as substrate at 10 uM preincubated for 15 mins before arachidonic acid addition measured after 5 mins
# T4 sequence (whole entry): T2 sequence (P35354 whole entry)
# [6] = target: T3, Prostaglandin G/H synthase 1; assay: Inhibition of human platelet COX1 using arachidonic acid as substrate at 10 uM preincubated for 15 mins before arachidonic acid addition measured after 15 mins
# Sequence of Estrogen receptor beta (Homo sapiens) (Q92731 whole entry): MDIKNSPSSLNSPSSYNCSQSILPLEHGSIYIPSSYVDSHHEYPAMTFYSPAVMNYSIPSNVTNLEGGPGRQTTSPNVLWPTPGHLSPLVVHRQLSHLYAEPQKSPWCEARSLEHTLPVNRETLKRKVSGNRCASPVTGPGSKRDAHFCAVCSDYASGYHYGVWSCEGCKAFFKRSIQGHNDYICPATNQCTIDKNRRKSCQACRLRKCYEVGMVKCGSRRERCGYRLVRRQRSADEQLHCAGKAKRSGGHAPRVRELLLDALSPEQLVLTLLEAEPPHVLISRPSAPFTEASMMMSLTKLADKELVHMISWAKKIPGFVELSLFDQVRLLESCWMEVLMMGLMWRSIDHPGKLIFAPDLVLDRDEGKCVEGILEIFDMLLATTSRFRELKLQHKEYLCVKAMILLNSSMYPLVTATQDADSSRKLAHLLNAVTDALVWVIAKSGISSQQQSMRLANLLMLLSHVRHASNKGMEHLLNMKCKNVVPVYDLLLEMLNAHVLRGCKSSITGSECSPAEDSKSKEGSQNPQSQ
inhibition [1] [%],inhibition [2] [%],IC50 [3] [nM],IC50 [4] [nM],inhibition [5] [%],inhibition [6] [%],Structure (SMILES)
77,-6,14,> 100000,–,–,CCCCC(=C(c1ccccc1)c1ccccc1)c1ccc(S(C)(=O)=O)cc1
80,91,–,–,17,12,CCCCC(=C(c1ccccc1)c1ccccc1)c1ccc([S+](C)(=N)[O-])cc1 (stereo not given)
60,54,–,–,10,5,CCCCC(=C(c1ccccc1)c1ccccc1)c1ccc([S+](C)([O-])=NC#N)cc1 (stereo not given)
53,77,–,–,–,23,CC(=C(c1ccccc1)c1ccccc1)c1ccc([S+](C)(=N)[O-])cc1 (stereo not given)
